Legend:
[1] = Solubility remark in the HT-29 table; assay type: physicochemical; conditions: printed in the IC50 column of TABLE I
[2] = test system: HT-29 human colon carcinoma cells; assay: HT-29 tumor cell growth inhibition / cytotoxicity (Sulforhodamine B Assay); assay type: cell-based; conditions: 168 h, HT-29, seven days continuous exposure
Procedure: (§1) The compounds of this invention were assayed for their effect on the human colon carcinoma cell lines HT-29 and SW-480 obtained from ATCC (Rockville, Md.), representative of precancerous lesions to ascertain the degree of tumor growth inhibition following treatment with compounds of this invention. The cell line employed for these experiments is well characterized, and is used by the United States National Cancer Institute in their screening program for new anticancer drugs. Growth inhibition of this cell line is thought to be indicative of a benefit on precancerous lesions and neoplasms.
Tumor cell cytotoxicity was assessed using the Sulforhodamine B Assay. In this assay, HT-29 tumor cells were plated in 96-well plates and treated with drug-containing media for seven days (continuous exposure). At the end of the exposure period, the cell were fixed and stained with sulforhodamine B (a pink fluorescent dye). The dye was then solubilized, and the optical density of the resulting pink solution determined on a 96-well plate reader. The mean dye intensity of the treated wells was then divided by the mean dye intensity in the control wells (6 wells of each) to determine the effect of the drug on the cells. Dye intensity is proportional to the number of cells or amount of protein per well. The resultant "percent of control" value then represents the degree of growth inhibition caused by the drug.
For each experiment, an IC50 value was determined and used for comparative purposes. This value is equivalent to the concentration of drug needed to inhibit tumor cell growth by 50%. IC50 values were obtained graphically by connecting the mean values for each drug concentration tested. Each experiment included at least six wells per drug concentration. Concentration was plotted on a log scale on the X-axis.

[3] = test system: SW-480 colon adenocarcinoma cells; assay: Apoptosis: DNA fragmentation assay (Cell Death Detection ELISA plus); assay type: cell-based; conditions: Homo sapiens, SW480, SW-480, 48 hrs; for EC50: apoptosis
Procedure: as §1
Apoptosis was measured based on the amount of fragmented DNA contained in cell lysates. Briefly, SW-480 colon adenocarcinoma cells were plated at a density of 10K cells/well in 180 μl to 96-well microtitre plates ("MTP"), and incubated for 24 hrs. Cells were then treated with 20 μl aliquots appropriately diluted compound, and allowed to incubate for 48 hrs.
After the incubation, samples were prepared according to the following steps. […] Samples were analyzed immediately, because storage at 4 C or […] reduces the ELISA-signals.
Samples were then processed according to a DNA fragmentation assay protocol, and dose-response curves were generated based on optical density readings. […] The assay is based on a quantitative sandwich-enzyme-immunoassay-principle using mouse monoclonal antibodies directed against DNA and histones, respectively. […]
According to the vendor, the assay works in the following fashion. […] After removal of unbound antibodies by a washing step, the amount of nucleosomes is quantified by the POD retained in the immunocomplex. POD is determined photometrically with ABTS® (2,2'-Azino-di[3-ethylbenzthiazolin-sulfonat])* as substrate.
Fold stimulation (FS=ODmax/ODveh), an indicator of apoptotic response, was determined for each compound data analysis software, or by estimates based on the effective concentration range of each compound (ECR=min. effective dose-min. dose to peak effect).

polyps = conditions: when the patient take the drug; cited from earlier work
[4] = sulfoxide itself, believed; cited from earlier work
prostaglandin synthesis = conditions: acknowledged / regarded; cited from earlier work

CC1=C(CNC(=O)NC(C)C)c2cc(F)ccc2/C1=C\c1ccc(S(C)(=O)=O)cc1 [Example 21, (Z)-N-{[5-Fluoro-2-methyl-1-(p-methylsulfonylbenzylidene)inden-3-yl]-methyl}-N'-isopropyl urea]
solubility (reason for IC50 N/A) [1]: not very soluble

CC1=C(CNC(=O)NCCCN(C)C)c2cc(F)ccc2/C1=C\c1ccc(S(C)(=O)=O)cc1 [Example 22, (Z)-N-{[5-Fluoro-2-methyl-1-(p-methylsulfonyl-benzylidene)-inden-3-yl]-methyl}-N'-dimethylaminopropyl urea]
IC50 [2]: 4.4 to 5.4 µM | EC50 [3]: 75 µM

CC1=C(CNC(=O)NCc2ccccc2)c2cc(F)ccc2/C1=C\c1ccc(S(C)(=O)=O)cc1 [Example 23, (Z)-N-{[5-Fluoro-2-methyl-1-(p-methylsulfonyl-benzylidene)-inden-3-yl]-methyl}-N'-benzyl urea]
IC50 [2]: 1.6 to 3.2 µM

CC1=C(CNC(=O)NCC(N)=O)c2cc(F)ccc2/C1=C\c1ccc(S(C)(=O)=O)cc1 [Example 24, (Z)-N-{[5-Fluoro-2-methyl-1-(p-methylsulfonyl-benzylidene)-inden-3-yl]-methyl}-N'-glycinamide urea]
solubility (reason for IC50 N/A) [1]: not very soluble

CC1=C(CNC(=O)OC(C)C)c2cc(F)ccc2/C1=C\c1ccc(S(C)(=O)=O)cc1 [Example 25, (Z)-N-{[5-Fluoro-2-methyl-1-(p-methylsulfonyl-benzylidene)-inden-3-yl]-methyl}-O-isopropyl urethane]
IC50 [2]: 3.2 to 4 µM

COC(=O)NCC1=C(C)/C(=C/c2ccc(S(C)(=O)=O)cc2)c2ccc(F)cc21 [Example 26, (Z)-N-{[5-Fluoro-2-methyl-1-(p-methylsulfonyl-benzylidene)-inden-3-yl]-methyl}-O-methyl urethane]
IC50 [2]: 4.5 to 8 µM | maximal fold induction ([3]; FS=ODmax/ODveh, read-out: Fold Stimulation): 5 to 6.8 | EC50 [3]: 250 µM

CCOC(=O)NCC1=C(C)/C(=C/c2ccc(S(C)(=O)=O)cc2)c2ccc(F)cc21 [Example 27, (Z)-N-{[5-Fluoro-2-methyl-1-(p-methylsulfonyl-benzylidene)-inden-3-yl]-methyl}-O-ethyl urethane]
IC50 [2]: 4.1 µM

COCCOC(=O)NCC1=C(C)/C(=C/c2ccc(S(C)(=O)=O)cc2)c2ccc(F)cc21 [Example 28, (Z)-N-{[5-Fluoro-2-methyl-1-(p-methylsulfonyl-benzylidene)-inden-3-yl]-methyl}-O-methoxyethyl urethane]
IC50 [2]: 7.1 to 11 µM

CC1=C(CC(=O)O)c2cc(F)ccc2/C1=C\c1ccc([S+](C)[O-])cc1 (stereo not drawn) [Sulindac, (Z)-5-fluoro-2-methyl-1-(4-methylsulfinylbenzylidene)inden-3-ylacetic acid]
effect on polyps (polyps): Polyps virtually disappear | activity as an anti-arthritic agent [4]: inactive

CSc1ccc(/C=C2/C(C)=C(CC(=O)O)c3cc(F)ccc32)cc1 [sulfide]
activity as a prostaglandin (synthesis) inhibitor (prostaglandin synthesis): active moiety as a prostaglandin inhibitor

CC1=C(CC(=O)O)c2cc(F)ccc2/C1=C\c1ccc(S(C)(=O)=O)cc1 [sulfone]
activity as a prostaglandin (synthesis) inhibitor (prostaglandin synthesis): inactive
